Columns and labels:
interferon [1] = assay: Interferon induction in mice; assay type: in vivo; conditions: mouse serum
Outline: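 Interferon titres expressed as α/β reference units/mL relative to mouse MU-1-IF standard, "<" denoting undetectable. Pooled serum came from mouse groups bled at 1, 2 or 4 h, frozen at −70° C, analysed like human-cell samples.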

interferon-α [2] = assay: Interferon-α induction in human cells, PBM; assay type: cell-based; conditions: 24 hours
interferon-α [3] = assay: Interferon-α induction in human cells, diluted whole blood; assay type: cell-based; conditions: 24 hours
[4] = system: Herpes simplex virus Type II strain 333; assay: Antiviral activity in guinea pigs infected with Herpes simplex virus Type II (lesion inhibition); assay type: in vivo; conditions: oral once daily for four days
Excerpt: Female Hartley guinea pigs weighing 200 to 250 g are anesthetized with methoxyflurane (available under the […] from Pitman-Moore, Inc., Washington Crossing, N.J.), after which the vaginal area is swabbed with a dry cotton swab. The guinea pigs are then infected intravaginally with a cotton swab saturated with Herpes simplex virus Type II strain 333 (1×10^5 plaque forming units/mL). Guinea pigs are assigned to groups of 7 animals; one group for each treatment and one to serve as a control (vehicle treated). The compounds of the invention are formulated in water containing 5% Tween 80 (a polyoxyethylene sorbitan monooleate available from Aldrich Chemical Company, Inc., Milwaukee, Wis.). The, guinea pigs are treated orally once daily for four consecutive days starting 24 hours after infection. Antiviral activity is evaluated by comparing lesion development in compound-treated versus vehicle-treated guinea pigs. […] The maximum lesion score of each guinea pig is used to calculate the percentage lesion inhibition. The percentage lesion inhibition is calculated as follows: […]

MC-26 colon tumor cells [5] = assay: Inhibition of MC-26 tumors in mice, 14 day lung colony count; assay type: in vivo; conditions: lung colonies day 14, 4×10^4 MC-26 cells i.v., oral 30 mg/kg on days 3-7 and 10-14; control 385 ± 31
Experimental: The mice are sacrificed 14 days later. […] Five mice are in each treatment group and comparisons are made to controls. […] The mice in the control groups were dosed orally with saline (10 mL/kg) on days 3, 4, 5, 6, and 7, and with water (10 mL/kg) on days 10, 11, 12, 13, and 14.

interferon [6] = assay: Interferon induction in guinea pigs (serum interferon titer); assay type: in vivo; conditions: guinea pig serum 24 hours after initial oral dose
Excerpt: Female Hartley guinea pigs weighing 200 to 250 g are anesthetized with methoxyflurane (available under the […] from Pitman-Moore, Inc., Washington Crossing, N.J.), after which the vaginal area is swabbed with a dry cotton swab. The guinea pigs are then infected intravaginally with a cotton swab saturated with Herpes simplex virus Type II strain 333 (1×10^5 plaque forming units/mL). Guinea pigs are assigned to groups of 7 animals; one group for each treatment and one to serve as a control (vehicle treated). The compounds of the invention are formulated in water containing 5% Tween 80 (a polyoxyethylene sorbitan monooleate available from Aldrich Chemical Company, Inc., Milwaukee, Wis.). The, guinea pigs are treated orally once daily for four consecutive days starting 24 hours after infection. Twenty-four hours after the initial dose of test compound has been administered, blood is obtained from 3 guinea pigs from each treatment group by cardiac puncture of methoxyflurane anesthetized animals. Blood is pooled and allowed to clot at room temperature. After low speed centrifugation, serum is collected and stored at -70° C. until analysis. Interferon levels in the guinea pig serum are determined in a standard microtiter assay using transformed guinea pig cells (ATCC CRL 1405). The interferon assay is done in 96 well microtiter plates. Confluent monolayers of transformed guinea pig cells are treated with dilutions of guinea pig serum made with medium 199 (GIBCO, Grand Island, N.Y.). The cell and serum dilutions are incubated at 37° C. overnight. The following day, the medium and serum are removed and about 10 plaque forming units of Mengovirus are added to each well. Controls consist of wells that receive no guinea pig serum (virus positive control) and wells that receive no virus (virus negative control). Cells and virus are incubated for 2 to 3 days at 37° C. before quantifying for viral cytopathic effect. The viral cytopathic effect is quantified by staining with 0.05% crystal violet followed by spectrophotometric absorbance measurements. The titer of interferon in serum is expressed as units/mL and is the reciprocal of the highest dilution that protects cells from virus.

MC-26 colon tumor cells [7] = assay: Inhibition of MC-26 tumors in mice, 21 day lung colony count; conditions: lung colonies day 21, 1×10^4 MC-26 cells i.v., control 55 ± 11
Experimental: On day 0 female CDF1 mice are inoculated i.v. with 1×10^4 MC-26 colon tumor cells in a volume of 0.2 mL of saline per mouse. The mice are sacrificed 21 days later. The lungs are removed and fixed with WARF then allowed to stand for 30 minutes. The lobes are separated and the colonies are counted. Ten mice are in each treatment group and in the control group.
The mice in the control group were dosed orally with water (10 mL/Kg) on days 0, 1, 2, 3 and 4.

[8] = system: vesicular stomatitis virus (VSV); assay: microbe, parasite or virus in culture; assay type: cell-based; conditions: Vesicular stomatitis virus, read-out: VSV Yield Inhibition

## CC(C)Cn1c(C(O)c2ccccc2)nc2c(N)nc3ccccc3c21 (stereo not drawn) [Example 48, 4-Amino-1-(2-methylpropyl)-α-phenyl-1H-imidazo[4,5-c]quinoline-2-methanol]
other
  melting point: 125 to 140 °C
Interferon [1]; oral 0.3 mg/kg, 1 hr
  Interferon induction in mice: <260 Reference Units/mL
Interferon [1]; oral 0.3 mg/kg, 2 hr
  Interferon induction in mice: <260 Reference Units/mL
Interferon [1]; oral 0.3 mg/kg, 4 hr
  Interferon induction in mice: <260 Reference Units/mL
Interferon [1]; oral 1 mg/kg, 1 hr
  Interferon induction in mice: 790 Reference Units/mL
Interferon [1]; oral 1 mg/kg, 2 hr
  Interferon induction in mice: 940 Reference Units/mL
Interferon [1]; oral 1 mg/kg, 4 hr
  Interferon induction in mice: <260 Reference Units/mL
Interferon [1]; oral 3 mg/kg, 1 hr
  Interferon induction in mice: 1600 Reference Units/mL
Interferon [1]; oral 3 mg/kg, 2 hr
  Interferon induction in mice: 1600 Reference Units/mL
Interferon [1]; oral 3 mg/kg, 4 hr
  Interferon induction in mice: ˜510 Reference Units/mL
Interferon [1]; oral 10 mg/kg, 1 hr
  Interferon induction in mice: 2000 Reference Units/mL
Interferon [1]; oral 10 mg/kg, 2 hr
  Interferon induction in mice: 2000 Reference Units/mL
Interferon [1]; oral 10 mg/kg, 4 hr
  Interferon induction in mice: ˜540 Reference Units/mL
interferon-α [2]; dose concentration 0.10 μg/mL
  Interferon-α induction: 3100 α Reference Units/mL
interferon-α [2]; dose concentration 0.50 μg/mL
  Interferon-α induction: 840 α Reference Units/mL
interferon-α [2]; dose concentration 1.0 μg/mL
  Interferon-α induction: 330 α Reference Units/mL
interferon-α [2]; dose concentration 5.0 μg/mL
  Interferon-α induction: 1300 α Reference Units/mL

## CC(C)Cn1c(CN2CCOCC2)nc2c(N)nc3ccccc3c21 [Example 12, 1-(2-Methylproyl)-2-morpholinomethyl-1H-imidazo-[4,5-c]quinolin-4-amine]
interferon-α [3]; dose concentration 0.10 μg/mL
  Interferon-α induction: <1.8 α Reference Units/mL
interferon-α [3]; dose concentration 0.50 μg/mL
  Interferon-α induction: 37 α Reference Units/mL
interferon-α [3]; dose concentration 1.0 μg/mL
  Interferon-α induction: 140 α Reference Units/mL
interferon-α [3]; dose concentration 5.0 μg/mL
  Interferon-α induction: 330 α Reference Units/mL
[4]; dose 0.5 mg/kg
  % Lesion Inhibition: 82%
[4]; dose 2 mg/kg
  % Lesion Inhibition: 100%
MC-26 colon tumor cells [5]
  Number of Colonies: 149 ± 21
Interferon [1]; oral 1 mg/kg, 1 hr
  Interferon induction in mice: 94 Reference Units/mL
Interferon [1]; oral 1 mg/kg, 2 hr
  Interferon induction in mice: 160 Reference Units/mL
Interferon [1]; oral 1 mg/kg, 4 hr
  Interferon induction in mice: <18 Reference Units/mL
Interferon [1]; oral 3 mg/kg, 1 hr
  Interferon induction in mice: 54 Reference Units/mL
Interferon [1]; oral 3 mg/kg, 2 hr
  Interferon induction in mice: 40 Reference Units/mL
Interferon [1]; oral 3 mg/kg, 4 hr
  Interferon induction in mice: <18 Reference Units/mL
Interferon [1]; oral 10 mg/kg, 1 hr
  Interferon induction in mice: 850 Reference Units/mL
Interferon [1]; oral 10 mg/kg, 2 hr
  Interferon induction in mice: 850 Reference Units/mL
Interferon [1]; oral 10 mg/kg, 4 hr
  Interferon induction in mice: 40 Reference Units/mL
Interferon [1]; oral 30 mg/kg, 1 hr
  Interferon induction in mice: 850 Reference Units/mL
Interferon [1]; oral 30 mg/kg, 2 hr
  Interferon induction in mice: 5800 Reference Units/mL
Interferon [1]; oral 30 mg/kg, 4 hr
  Interferon induction in mice: 40 Reference Units/mL
Interferon [6]; 0.5 mg/kg
  Reference Units/mL (interferon in serum): >12,800 Units/mL
Interferon [6]; 2 mg/kg
  Reference Units/mL (interferon in serum): >12,800 Units/mL

## CC(C)Cn1c(CN=[N+]=[N-])nc2c(N)nc3ccccc3c21 [Example 11, 2-Azidomethyl-1-(2-methylpropyl)-1H-imidazo-[4,5-c]quinolin-4-amine]
interferon-α [3]; dose concentration 0.10 μg/mL
  Interferon-α induction: 330 α Reference Units/mL
interferon-α [3]; dose concentration 0.50 μg/mL
  Interferon-α induction: 330 α Reference Units/mL
interferon-α [3]; dose concentration 1.0 μg/mL
  Interferon-α induction: 250 α Reference Units/mL
interferon-α [3]; dose concentration 5.0 μg/mL
  Interferon-α induction: 140 α Reference Units/mL
[4]; dose 0.1 mg/kg
  % Lesion Inhibition: 50%
[4]; dose 0.5 mg/kg
  % Lesion Inhibition: 100%
[4]; dose 1 mg/kg
  % Lesion Inhibition: 100%
MC-26 colon tumor cells [5]
  Number of Colonies: 204 ± 28
Interferon [1]; oral 1 mg/kg, 1 hr
  Interferon induction in mice: 280 Reference Units/mL
Interferon [1]; oral 1 mg/kg, 2 hr
  Interferon induction in mice: 1100 Reference Units/mL
Interferon [1]; oral 1 mg/kg, 4 hr
  Interferon induction in mice: 71 Reference Units/mL
Interferon [1]; oral 3 mg/kg, 1 hr
  Interferon induction in mice: 490 Reference Units/mL
Interferon [1]; oral 3 mg/kg, 2 hr
  Interferon induction in mice: 1900 Reference Units/mL
Interferon [1]; oral 3 mg/kg, 4 hr
  Interferon induction in mice: 30 Reference Units/mL
Interferon [1]; oral 10 mg/kg, 1 hr
  Interferon induction in mice: 1100 Reference Units/mL
Interferon [1]; oral 10 mg/kg, 2 hr
  Interferon induction in mice: 2500 Reference Units/mL
Interferon [1]; oral 10 mg/kg, 4 hr
  Interferon induction in mice: 280 Reference Units/mL
Interferon [1]; oral 30 mg/kg, 1 hr
  Interferon induction in mice: 850 Reference Units/mL
Interferon [1]; oral 30 mg/kg, 2 hr
  Interferon induction in mice: 2500 Reference Units/mL
Interferon [1]; oral 30 mg/kg, 4 hr
  Interferon induction in mice: 40 Reference Units/mL
Interferon [6]; 0.5 mg/kg
  Reference Units/mL (interferon in serum): >12,800 Units/mL
Interferon [6]; 1 mg/kg
  Reference Units/mL (interferon in serum): >12,800 Units/mL
interferon-α [2]; dose concentration 0.01 μg/mL
  Interferon-α induction: 330 α Reference Units/mL
interferon-α [2]; dose concentration 0.05 μg/mL
  Interferon-α induction: 330 α Reference Units/mL
interferon-α [2]; dose concentration 0.10 μg/mL
  Interferon-α induction: 570 α Reference Units/mL
interferon-α [2]; dose concentration 0.50 μg/mL
  Interferon-α induction: 570 α Reference Units/mL
interferon-α [2]; dose concentration 1.0 μg/mL
  Interferon-α induction: 570 α Reference Units/mL
interferon-α [2]; dose concentration 5.0 μg/mL
  Interferon-α induction: 570 α Reference Units/mL

## CCOCc1nc2c(N)nc3ccccc3c2n1CC(C)(C)O [Example 99, 4-Amino-α,α-dimethyl-2-ethoxymethyl-1H-imidazo[4,5-c]quinoline-1-ethanol]
Interferon [1]; oral 0.3 mg/kg, 1 hr
  Interferon induction in mice: 1600 Reference Units/mL
Interferon [1]; oral 0.3 mg/kg, 2 hr
  Interferon induction in mice: 3500 Reference Units/mL
Interferon [1]; oral 0.3 mg/kg, 4 hr
  Interferon induction in mice: 390 Reference Units/mL
Interferon [1]; oral 1 mg/kg, 1 hr
  Interferon induction in mice: 2200 Reference Units/mL
Interferon [1]; oral 1 mg/kg, 2 hr
  Interferon induction in mice: 5100 Reference Units/mL
Interferon [1]; oral 1 mg/kg, 4 hr
  Interferon induction in mice: 460 Reference Units/mL
Interferon [1]; oral 3 mg/kg, 1 hr
  Interferon induction in mice: 1600 Reference Units/mL
Interferon [1]; oral 3 mg/kg, 2 hr
  Interferon induction in mice: 750 Reference Units/mL
Interferon [1]; oral 3 mg/kg, 4 hr
  Interferon induction in mice: ˜220 Reference Units/mL
Interferon [1]; oral 10 mg/kg, 1 hr
  Interferon induction in mice: 2500 Reference Units/mL
Interferon [1]; oral 10 mg/kg, 2 hr
  Interferon induction in mice: 4600 Reference Units/mL
Interferon [1]; oral 10 mg/kg, 4 hr
  Interferon induction in mice: ˜220 Reference Units/mL
MC-26 colon tumor cells [7]; oral 1 mg/Kg on days 0-4
  Number of Colonies: 29 ± 4
MC-26 colon tumor cells [7]; oral 3 mg/Kg on days 0-4
  Number of Colonies: 17 ± 3
interferon-α [2]; dose concentration 0.01 μg/mL
  Interferon-α induction: 28 α Reference Units/mL
interferon-α [2]; dose concentration 0.05 μg/mL
  Interferon-α induction: 316 α Reference Units/mL
interferon-α [2]; dose concentration 0.10 μg/mL
  Interferon-α induction: 280 α Reference Units/mL
interferon-α [2]; dose concentration 0.50 μg/mL
  Interferon-α induction: 790 α Reference Units/mL
interferon-α [2]; dose concentration 1.0 μg/mL
  Interferon-α induction: 790 α Reference Units/mL
interferon-α [2]; dose concentration 5.0 μg/mL
  Interferon-α induction: 630 α Reference Units/mL
[8]
  log reduction at 0.1 µg/mL: 5
  log reduction at 0.5 µg/mL: 5
  log reduction at 1 µg/mL: 5
